Assay results reported in patent USRE50724E1, “4-membered ring carboxamides used as nematicides” (SYNGENTA CROP PROTECTION AG, priority 2013, dated 2026).
Like-named read-outs stand apart in the source and are kept apart here.

What was measured:
[1] = system: Heterodera schachtii; assay: Heterodera schachtii (sugar beet cyst nematode), nematicide, contact activity: juvenile paralysis in 16-well assay plates; assay type: in vivo; conditions: read-out: nematode immobilization compared to the untreated control
Description: Heterodera schachtii (Sugar Beet Cyst Nematode), Nematicide, Contact Activity
The tested application rate of each compound was 200 ppm. All solutions were brought to a concentration of 400 ppm, respectively, as they were subsequently diluted by adding the equivalent amount of water containing juvenile nematodes. After preparation of the suspensions, 1 ml of each suspension and concentration was transferred to 16-well assay plates with a total of three replicates per treatment. Approximately 500 juveniles of Heterodera schachtii were added in 1 ml of water to each well. Nematodes in water served as controls. The plates were placed in a dark box and stored at room temperature. Nematode paralysis was determined after 24 hours incubation at 25° C. in darkness.

[2] = system: Meloidogyne spp.; assay: Meloidogyne spp. (root-knot nematode), nematicide, contact activity, preventive: cucumber seed in filter paper pouch; assay type: in vivo; conditions: 288 h, cucumber cv. Toshka seed in pouch, 3000 eggs, twelve days, read-out: reduction of galling compared to the untreated control
Description: Meloidogyne spp. (Root-Knot Nematode) Nematicide, Contact Activity, Preventive. Filter papers (9 cm×4.5 cm) with a small pocket were placed into plastic pouches (12 cm×6 cm). One cucumber cv. Toshka seed was placed in the centre of the filter paper pocket of all the pouches needed for a test. The cucumber seeds in the pouches were treated with test solutions at 200 ppm by pipetting the solution directly over the cucumber seed in the filter paper pocket in the pouch. Prior to application, the compound solution was prepared at twice the concentration required and the egg suspension is prepared with FORL nutrient solution with 3000 eggs/0.5 ml. After applying all the treatments, 3000 eggs (in 0.5 ml of FORL nutrient solution) were pipetted into the pouches. The pouches were incubated in a moist chamber for twelve days and watered regularly to maintain good filter paper moisture essential for the growing cucumber root system. After this period, the filter paper containing the germinated cucumber seedling was removed from the plastic pouch to assess the number of galls caused by Meloidogyne spp. per root system. Phytotoxicity was measured as a reduction of growth of the emerged cucumber seedling in comparison to the control.

[3] = 200 ppm, approx. 500 juveniles per well, 24 hours incubation at 25° C. in darkness

Structure (SMILES) | pest or weed control at 200 ppm [1, 3] | pest or weed control at 200 ppm [2] | pest or weed control at 200 ppm ([1]; 24 h)
COc1cccc(F)c1C(=O)N[C@H]1CC[C@H]1c1ccc(Cl)cc1Cl [Compound 61.68, N-[(1S,2S)-2-(2,4-dichlorophenyl)cyclobutyl]-2-fluoro-6-methoxybenzamide] | > 75% | > 80% | 
Cc1cccc(F)c1C(=O)N[C@H]1CC[C@H]1c1ccc(Cl)cc1Cl [Compound 61.69, N-[(1S,2S)-2-(2,4-dichlorophenyl)cyclobutyl]-2-fluoro-6-methylbenzamide] | > 75% | > 80% | 
Cn1cccc1C(=O)N[C@H]1CC[C@H]1c1ccc(Cl)cc1Cl [Compound 61.76, N-[(1S,2S)-2-(2,4-dichlorophenyl)cyclobutyl]-1-methylpyrrole-2-carboxamide] | > 75% | > 80% | 
O=C(N[C@H]1CC[C@H]1c1ccc(F)cc1F)c1c(F)cccc1C(F)(F)F [Compound 61.131, N-[(1S,2S)-2-(2,4-difluorophenyl)cyclobutyl]-2-fluoro-6-(trifluoromethyl)benzamide] | > 75% |  | 
O=C(N[C@H]1CC[C@H]1c1ccc(Cl)cc1Cl)c1nccnc1Cl [Compound 61.3, 3-chloro-N-[(1S,2S)-2-(2,4-dichlorophenyl)cyclobutyl]pyrazine-2-carboxamide] | > 75% |  | 
N#Cc1ccccc1C(=O)N[C@H]1CC[C@H]1c1ccc(Cl)cc1Cl [Compound 61.91, 2-cyano-N-[(1S,2S)-2-(2,4-dichlorophenyl)cyclobutyl]benzamide] | > 75% |  | 
O=C(N[C@H]1CC[C@H]1c1ccc(Cl)cc1Cl)c1ncccc1C(F)(F)F [Compound 61.4, N-[(1S,2S)-2-(2,4-dichlorophenyl)cyclobutyl]-3-(trifluoromethyl)pyridine-2-carboxamide] | > 75% |  | 
Cc1ncccc1C(=O)N[C@H]1CC[C@H]1c1ccc(F)cc1F [Compound 61.140, N-[(1S,2S)-2-(2,4-difluorophenyl)cyclobutyl]-2-methylpyridine-3-carboxamide] | > 75% |  | 
Cc1nscc1C(=O)N[C@H]1CC[C@H]1c1ccc(Cl)cc1Cl [Compound 61.74, N-[(1S,2S)-2-(2,4-dichlorophenyl)cyclobutyl]-3-methyl-1,2-thiazole-4-carboxamide] | > 75% |  | 
Cc1oncc1C(=O)N[C@H]1CC[C@H]1c1ccc(Cl)cc1Cl [Compound 61.83, N-[(1S,2S)-2-(2,4-dichlorophenyl)cyclobutyl]-5-methyl-1,2-oxazole-4-carboxamide] | > 75% |  | 
Cc1nccnc1C(=O)N[C@H]1CC[C@H]1c1ccc(Cl)cc1Cl [Compound 61.70, N-[(1S,2S)-2-(2,4-dichlorophenyl)cyclobutyl]-3-methylpyrazine-2-carboxamide] | > 75% |  | 
O=C(N[C@H]1CC[C@H]1c1ccc(F)cc1F)c1cnccc1C(F)(F)F [Compound 61.114, N-[(1S,2S)-2-(2,4-difluorophenyl)cyclobutyl]-4-(trifluoromethyl)pyridine-3-carboxamide] | > 75% |  | 
O=C(N[C@H]1CC[C@H]1c1ccc(Cl)cc1)c1ccccc1Br [Compound 61.21, 2-bromo-N-[(1S,2S)-2-(4-chlorophenyl)cyclobutyl]benzamide] | > 75% |  | 
CC1=C(C(=O)N[C@H]2CC[C@H]2c2ccc(Cl)cc2Cl)SCCO1 [Compound 61.86, N-[(1S,2S)-2-(2,4-dichlorophenyl)cyclobutyl]-6-methyl-2,3-dihydro-1,4-oxathiine-5-carboxamide] | > 75% |  | 
O=C(N[C@H]1CC[C@H]1c1ccc(Cl)cc1Cl)c1c(F)cccc1C(F)(F)F [Compound 61.84, N-[(1S,2S)-2-(2,4-dichlorophenyl)cyclobutyl]-2-fluoro-6-(trifluoromethyl)benzamide] | > 75% |  | 
Cc1ccccc1C(=O)N[C@H]1CC[C@H]1c1ccc(F)cc1F [Compound 61.109, N-[(1S,2S)-2-(2,4-difluorophenyl)cyclobutyl]-2-methylbenzamide] | > 75% |  | 
O=C(N[C@H]1CC[C@H]1c1ccc(Cl)cc1Cl)c1ccc[nH]1 [Compound 61.72, N-[(1S,2S)-2-(2,4-dichlorophenyl)cyclobutyl]-1H-pyrrole-2-carboxamide] | > 75% |  | 
O=C(N[C@H]1CC[C@H]1c1ccc(Cl)cc1)c1ccsc1Cl [Compound 61.52, 2-chloro-N-[(1S,2S)-2-(4-chlorophenyl)cyclobutyl]thiophene-3-carboxamide] | > 75% |  | 

Structure (SMILES) | pest or weed control at 200 ppm [1, 3] | pest or weed control at 200 ppm [2] | pest or weed control at 200 ppm ([1]; 24 h)
Cc1cccnc1C(=O)N[C@H]1CC[C@H]1c1ccc(F)cc1F [Compound 61.108, N-[(1S,2S)-2-(2,4-difluorophenyl)cyclobutyl]-3-methylpyridine-2-carboxamide] | > 75% |  | 
O=C(N[C@H]1CC[C@H]1c1ccc(F)cc1F)c1ccccc1Br [Compound 61.116, 2-bromo-N-[(1S,2S)-2-(2,4-difluorophenyl)cyclobutyl]benzamide] | > 75% |  | 
O=C(N[C@H]1CC[C@H]1c1ccc(F)cc1F)c1ccccc1F [Compound 61.121, N-[(1S,2S)-2-(2,4-difluorophenyl)cyclobutyl]-2-fluorobenzamide] | > 75% |  | 
O=C(N[C@H]1CC[C@H]1c1ccc(Cl)cc1Cl)c1ccoc1C(F)(F)F [Compound 61.174, N-[(1S,2S)-2-(2,4-dichlorophenyl)cyclobutyl]-2-(trifluoromethyl)furan-3-carboxamide] | > 75% |  | 
COc1cccnc1C(=O)N[C@H]1CC[C@H]1c1ccc(Cl)cc1 [Compound 61.11, N-[(1S,2S)-2-(4-chlorophenyl)cyclobutyl]-3-methoxypyridine-2-carboxamide] | > 75% |  | 
O=C(N[C@H]1CC[C@H]1c1ccc(F)cc1F)c1cncnc1C(F)(F)F [Compound 61.122, N-[(1S,2S)-2-(2,4-difluorophenyl)cyclobutyl]-4-(trifluoromethyl)pyrimidine-5-carboxamide] | > 75% |  | 
O=C(N[C@H]1CC[C@H]1c1ccc(Cl)cc1Cl)c1ccsc1I [Compound 61.96, N-[(1S,2S)-2-(2,4-dichlorophenyl)cyclobutyl]-2-iodothiophene-3-carboxamide] | > 75% |  | 
O=C(N[C@H]1CC[C@H]1c1ccc(F)cc1F)c1ncccc1C(F)(F)F [Compound 61.151, N-[(1S,2S)-2-(2,4-difluorophenyl)cyclobutyl]-3-(trifluoromethyl)pyridine-2-carboxamide] | > 75% |  | 
O=C(N[C@H]1CC[C@H]1c1ccc(Cl)cc1Cl)c1ccccc1OC(F)(F)F [Compound 61.81, N-[(1S,2S)-2-(2,4-dichlorophenyl)cyclobutyl]-2-(trifluoromethoxy)benzamide] | > 75% |  | 
O=C(N[C@H]1CC[C@H]1c1ccc(F)cc1F)c1ncccn1 [Compound 61.110, N-[(1S,2S)-2-(2,4-difluorophenyl)cyclobutyl]pyrimidine-2-carboxamide] | > 75% |  | 
Cn1cccc1C(=O)N[C@H]1CC[C@H]1c1ccc(F)cc1F [Compound 61.126, N-[(1S,2S)-2-(2,4-difluorophenyl)cyclobutyl]-1-methylpyrrole-2-carboxamide] | > 75% |  | 
Cc1ncccc1C(=O)N[C@H]1CC[C@H]1c1ccc(Cl)cc1 [Compound 61.23, N-[(1S,2S)-2-(4-chlorophenyl)cyclobutyl]-2-methylpyridine-3-carboxamide] | > 75% |  | 
Cc1nccnc1C(=O)N[C@H]1CC[C@H]1c1ccc(Cl)cc1 [Compound 61.26, N-[(1S,2S)-2-(4-chlorophenyl)cyclobutyl]-3-methylpyrazine-2-carboxamide] | > 75% |  | 
O=C(N[C@H]1CC[C@H]1c1ccc(Cl)cc1Cl)C1=C(C(F)(F)F)OCCS1 [Compound 61.85, N-[(1S,2S)-2-(2,4-dichlorophenyl)cyclobutyl]-6-(trifluoromethyl)-2,3-dihydro-1,4-oxathiine-5-carboxamide] | > 75% |  | 
Cc1nc(C(F)(F)F)c(C(=O)N[C@H]2CC[C@H]2c2ccc(Cl)cc2Cl)s1 [Compound 61.93, N-[(1S,2S)-2-(2,4-dichlorophenyl)cyclobutyl]-2-methyl-4-(trifluoromethyl)-1,3-thiazole-5-carboxamide] |  |  | > 75%
Cc1cccc(F)c1C(=O)N[C@H]1CC[C@H]1c1ccc(F)cc1F [Compound 61.118, N-[(1S,2S)-2-(2,4-difluorophenyl)cyclobutyl]-2-fluoro-6-methylbenzamide] | > 75% |  | 
Cc1occc1C(=O)N[C@H]1CC[C@H]1c1ccc(F)cc1F [Compound 61.144, N-[(1S,2S)-2-(2,4-difluorophenyl)cyclobutyl]-2-methylfuran-3-carboxamide] | > 75% |  | 
